The text below walks through data of US12568971B2, “Degradative method” (Catexel Technologies Limited, priority 2020, dated 2026).

A short description of data set [1]: Dynamic viscosity of alginate solution after treatment (alginate depolymerisation), Brookfield cone/plate viscometer. Conditions: 60 min at 50° C. The procedure: The bottle was placed in a warm water bath (50° C.) for 60 minutes before being removed and cooled in an ice bath. Finally, the dynamic viscosity was determined using a Brookfield viscosity meter as outlined below. Note 1: A 2 mM solution of [[…])2 (see description of stock 12 above) was mixed with equivalent volume of the 2 mM ascorbic acid stock solution (stock solution 7). Upon contact with the ascorbic acid, the catalyst turned from orange/red to red/purple. Note 2: 0.5 mL of both Me3-TACN ligand (stock solution 10) and MnSO4·H2O (stock solution 8) were mixed, stirred and used as a source of catalyst to be placed in the alginate solution. The dynamic viscosity of the samples was measured using a Brookfield HBDV-II cone/plate viscosity meter equipped with a spindle CPE-40. The viscometer was linked to a water bath to maintain the temperature at 25° C. The apparatus was controlled via computer (external mode) using the Rheocalc software. Initially, the viscometer was zeroed without spindle. Then, the spindle CPE-40 was installed and the gap between the bottom of the cone and the top of the cup was set according to the recommendations given by Brookfield. 0.5 mL of the treated alginate solution was placed in the cup of the viscometer using a disposable plastic syringe before the apparatus was closed and the test program launched. […] Results.

For data set [2] the following is noted: cited from earlier work.
For data set [3] the following is noted: at 20° C.; cited from earlier work.

As to `O=S(=O)([O-])[O-].[Mn+2]` [MnSO4, manganese sulfate], the “Dynamic Viscosity” value in data set [1] (Entry 1: 10 μM MnSO4, 10 μM Me3TACN ligand, 20 mM H2O2, 4.7 mM NaHCO3, pH 10) came out at 85.4 mPa · s; in data set [1] (Entry 2: 10 μM MnSO4, 20 μM Me3TACN ligand, 20 mM H2O2, 4.7 mM NaHCO3, pH 10) it was 76.1 mPa · s; in data set [1] (Entry 3: 10 μM MnSO4, 40 μM Me3TACN ligand, 20 mM H2O2, 4.7 mM NaHCO3, pH 10) it was 63.4 mPa · s.
For the molecule `CC(=O)[O-].CN1CCN(C)CCN(CCN2CCN(C)CCN(C)CC2)CC1.[Cl-].[Cl-].[Mn+3].[Mn+4].[O-2].[O-2]` [[Mn2(μ-O)2(μ-CH3COO)(Me4-DTNE)]^2+, [Mn2(μ-O)2(μ-CH3COO)(Me4DTNE)]Cl2], the “Dynamic Viscosity” value in data set [1] (2.5 μM, pH 7.5, 10 mM H2O2, no buffer) is 82.3 mPa · s; in data set [1] (2.5 μM, pH 8.0, 10 mM H2O2, no buffer) it was 82.9 mPa · s; in data set [1] (2.5 μM, pH 8.5, 10 mM H2O2, no buffer), 80.7 mPa · s; in data set [1] (5.0 μM, pH 7.5, 10 mM H2O2, no buffer), 49.4 mPa · s; in data set [1] (5.0 μM, pH 8.0, 10 mM H2O2, no buffer) it was 53.7 mPa · s; in data set [1] (5.0 μM, pH 8.5, 10 mM H2O2, no buffer), 51.5 mPa · s. The “Dynamic Viscosity” value in data set [1] (5.0 μM, pH 9.0, 10 mM H2O2, no buffer) is reported as 62.9 mPa · s.
For orientation: pKa means the negative logarithm of the acid dissociation constant. As for `O=C(O)[C@@H]1O[C@@H](O)[C@@H](O)[C@@H](O)[C@@H]1O` [α-L-guluronic acid], the pKa in data set [2] was 3.65.
Take `O=C(O)[C@H]1O[C@@H](O)[C@@H](O)[C@@H](O)[C@@H]1O` [β-D-mannuronic acid]: the pKa in data set [2] is given as 3.38.
[Mn^IVMn^IV(μ-O)3(Me3-TACN)2][PF6]2: the water solubility in data set [3] was 10.8 mg/mL.
